In patent US5912331A, “Process for the preparation of 9-deoxo-9(Z)-hydroxyiminoerythromycin A” (Merck & Co., Inc., priority 1991, dated 1999):
In brackets after ≈: the same amount, converted by molar mass. Where two headings read alike, the source gives them in different places.

Columns and labels:
[1] = system: Enterococcus faecalis MB 5407; test: MIC, liquid turbidimetric microtiter method in brain heart infusion broth; type: cell-based; details: MB5407
Excerpt: (§1) The antibacterial activity of 9-deoxo-9(Z)-hydroxyiminoerythromycin A (II) against a panel of aerobic Gram positive and negative bacteria is shown in the following Table. The assay employs a liquid turbidimetric microtiter method for determination of the minimum inhibitory concentration (MIC) in brain heart infusion broth. […] The MIC is generally not an absolute value but rather a concentration range that falls within a two-fold dilution limit. Generally twelve two-fold dilutions of the test compound are employed with the initial concentration set at 128 mcg/ml.

[2] = system: Enterococcus faecium MB 5416; test: as above; type: cell-based; details: MB5416
Excerpt: as §1

[3] = system: Klebsiella pneumoniae MB4005; test: as above; type: cell-based
Excerpt: as §1

[4] = system: Staphylococcus aureus MB 2865; test: as above; type: cell-based; details: MB2865
Excerpt: as §1

[5] = system: Staphylococcus epidermidis MB 5414; test: as above; type: cell-based; details: MB5414
Excerpt: as §1

[6] = system: Staphylococcus haemolyticus MB 5412; test: as above; type: cell-based; details: MB5412
Excerpt: as §1

[7] = system: Steptococcus pneumoniae CL 2883; test: as above; type: cell-based
Excerpt: as §1

[8] = system: Streptococcus agalactiae CL 1343; test: as above; type: cell-based; details: CL1343
Excerpt: as §1

[9] = system: Streptococcus pyogenes MB 2874; test: as above; type: cell-based; details: MB2874
Excerpt: as §1

[10] = system: Streptococcus pyogenes MB 5406; test: as above; type: cell-based; details: MB5406
Excerpt: as §1

[11] = system: Streptococcus viridans CL 2943; test: as above; type: cell-based; details: CL2943
Excerpt: as §1

[12] = system: Yersinia enterocoltica CL 1598; test: as above; type: cell-based; details: CL1598
Excerpt: as §1

Escherichia coli MB 2884 = test: as above; type: cell-based; details: MB2884
Excerpt: (§2) The assay employs a liquid turbidimetric microtiter method for determination of the minimum inhibitory concentration (MIC) in brain heart infusion broth. […] The MIC is generally not an absolute value but rather a concentration range that falls within a two-fold dilution limit.

Escherichia coli MB 4926 = test: as above; type: cell-based; details: MB4926
Excerpt: as §2

[13] = system: Pseudomonas stutzeri MB 1231; test: as above; type: cell-based; details: Stutzerimonas stutzeri, MB1231
Excerpt: as §2

[14] = system: panel of aerobic Gram positive and negative bacteria; test: antibacterial activity in vitro against a panel of bacteria; type: cell-based
Excerpt: as §1

[15] = isomer conversion under the MIC assay conditions; type: physicochemical
Excerpt: as §1

[16] = system: Gram-positive microorganisms, e.g. Staphylococcus aureaus and Streptococcus pyogenes, and certain Gram-negative microorganisms; test: in vivo antibacterial activity, infected mice treated orally or subcutaneously
Excerpt: Extrapolation of such in vivo tests to support for human utility for macrolide compounds is likewise taught in U.S. Pat. No. 4,518,590, cited above.

[17] = Enterococcus faecalis MB 5407, brain heart infusion broth, read-out: MIC
[18] = Enterococcus faecium MB 5416, brain heart infusion broth, read-out: MIC
[19] = Klebsiella pneumoniae MB4005, brain heart infusion broth, read-out: MIC
[20] = Staphylococcus aureus MB 2865, brain heart infusion broth, read-out: MIC
[21] = Staphylococcus epidermidis MB 5414, brain heart infusion broth, read-out: MIC
[22] = Staphylococcus haemolyticus MB 5412, brain heart infusion broth, read-out: MIC
[23] = Steptococcus pneumoniae CL 2883, brain heart infusion broth, read-out: MIC
[24] = Streptococcus agalactiae CL 1343, brain heart infusion broth, read-out: MIC
[25] = Streptococcus pyogenes MB 2874, brain heart infusion broth, read-out: MIC
[26] = Streptococcus pyogenes MB 5406, brain heart infusion broth, read-out: MIC
[27] = Streptococcus viridans CL 2943, brain heart infusion broth, read-out: MIC
[28] = Yersinia enterocoltica CL 1598, brain heart infusion broth, read-out: MIC

SMILES | MIC [1, 17] | MIC [2, 18] | MIC [3, 19] | MIC [4, 20] | MIC [5, 21] | MIC [6, 22] | MIC [7, 23] | MIC [8, 24] | MIC [9, 25] | MIC [10, 26] | MIC [11, 27] | MIC [12, 28] | MIC (Escherichia coli MB 2884) | MIC (Escherichia coli MB 4926) | MIC [13] | further results
CC[C@H]1OC(=O)[C@H](C)[C@@H](O[C@H]2C[C@@](C)(OC)[C@@H](O)[C@H](C)O2)[C@H](C)[C@@H](O[C@@H]2O[C@H](C)C[C@H](N(C)C)[C@H]2O)[C@](C)(O)C[C@@H](C)/C(=N/O)[C@H](C)[C@@H](O)[C@]1(C)O [(II), 9-Deoxo-9(Z)-hydroxyiminoerythromycin A] | 2 µg/mL (≈ 2.67 µM) | 0.25 µg/mL (≈ 0.334 µM) | 32 µg/mL (≈ 42.7 µM) | 0.25 µg/mL (≈ 0.334 µM) | 0.12 µg/mL (≈ 0.16 µM) | 0.12 µg/mL (≈ 0.16 µM) | ≤ 0.06 µg/mL | ≤ 0.06 µg/mL | ≤ 0.06 µg/mL | 32 µg/mL (≈ 42.7 µM) | ≤ 0.06 µg/mL | 32 µg/mL (≈ 42.7 µM) | 16 µg/mL (≈ 21.4 µM) | 0.5 µg/mL (≈ 0.668 µM) | ≤ 0.06 µg/mL | activity in vitro (in words) ([14]; MIC panel, compared with (III) and erythromycin A (I)): comparable with the activities of the known compounds 9-deoxo-9(E)-hydroxyiminoerythromycin A (III) and erythromycin A (I); in vitro activity against Gram-positive and certain Gram-negative microorganisms ([14]; e.g. Staphylococcus aureas, Streptococcus pyogenes, certain Gram-negative cocci): exhibits in vitro activity against a variety of Gram-positive microorganisms, e.g. Staphylococcus aureas and Streptococcus pyogenes, and against certain Gram-negative microorganisms; conversion of (Z)isomer to (E)isomer [15]: An undetermined fraction of the (Z)isomer is converting; in vivo activity compared with in vitro activity ([16]; as regards susceptible organisms): more limited than its in vitro activity; in vivo activity ([16]; oral and parenteral routes): active in vivo versus a variety of Gram-positive microorganisms, e.g. Staphylococcus aureaus and Streptococcus pyogenes, and also certain Gram-negative microorganisms
CC[C@H]1OC(=O)[C@H](C)[C@@H](O[C@H]2C[C@@](C)(OC)[C@@H](O)[C@H](C)O2)[C@H](C)[C@@H](O[C@@H]2O[C@H](C)C[C@H](N(C)C)[C@H]2O)[C@](C)(O)C[C@@H](C)C(=O)[C@H](C)[C@@H](O)[C@]1(C)O [(I), Erythromycin A] | – | – | – | – | – | – | – | – | – | – | – | – | 16 µg/mL (≈ 21.8 µM) | 0.25 µg/mL (≈ 0.341 µM) | ≤ 0.06 µg/mL | MIC ([1]; Enterococcus faecalis): 1 µg/mL (≈ 1.36 µM); MIC ([2]; Enterococcus faecium): 0.12 µg/mL (≈ 0.164 µM); MIC ([3]; Klebsiella pneumoniae, MB4005): 32 µg/mL (≈ 43.6 µM); MIC ([4]; Staphylococcus aureus): 0.25 µg/mL (≈ 0.341 µM); MIC ([5]; Staphylococcus epidermidis): 0.12 µg/mL (≈ 0.164 µM); MIC ([6]; Staphylococcus haemolyticus): 0.12 µg/mL (≈ 0.164 µM); MIC [7]: ≤ 0.06 µg/mL; MIC ([8]; Streptococcus agalactiae): ≤ 0.06 µg/mL; MIC ([9]; Streptococcus pyogenes): ≤ 0.06 µg/mL; MIC ([10]; Streptococcus pyogenes): 16 µg/mL (≈ 21.8 µM); MIC ([11]; Streptococcus viridans): ≤ 0.06 µg/mL; MIC ([12]; Yersinia): 32 µg/mL (≈ 43.6 µM)
CC[C@H]1OC(=O)[C@H](C)[C@@H](O[C@H]2C[C@@](C)(OC)[C@@H](O)[C@H](C)O2)[C@H](C)[C@@H](O[C@@H]2O[C@H](C)C[C@H](N(C)C)[C@H]2O)[C@](C)(O)C[C@@H](C)/C(=N\O)[C@H](C)[C@@H](O)[C@]1(C)O [(III), 9-Deoxo-9(E)-hydroxyiminoerythromycin A] | 0.5 µg/mL (≈ 0.668 µM) | 0.12 µg/mL (≈ 0.16 µM) | 32 µg/mL (≈ 42.7 µM) | 0.25 µg/mL (≈ 0.334 µM) | 0.12 µg/mL (≈ 0.16 µM) | 0.12 µg/mL (≈ 0.16 µM) | 0.12 µg/mL (≈ 0.16 µM) | ≤ 0.06 µg/mL | ≤ 0.06 µg/mL | 16 µg/mL (≈ 21.4 µM) | ≤ 0.06 µg/mL | 16 µg/mL (≈ 21.4 µM) | 32 µg/mL (≈ 42.7 µM) | 0.25 µg/mL (≈ 0.334 µM) | 1 µg/mL (≈ 1.34 µM) | –
